From the NIST ThermoML archive (doi:10.1021/je5008372)

How the values were obtained:
[1] = mn = molality of the nth substance listed, in mol/kg; details: 86.8 kPa, Liquid; for viscosity: Capillary tube (Ostwald / Ubbelohde) method; for speed of sound: Sing-around technique in a fixed-path interferometer; for mass density: Vibrating tube method
[2] = refractive index (Na D-line) (dimensionless); mn = molality of the nth substance listed, in mol/kg; details: 86.8 kPa, Liquid, Standard Abbe refractometry
[3] = refractive index (Na D-line) (dimensionless); details: 86.8 kPa, Liquid, Standard Abbe refractometry
[4] = 86.8 kPa, Liquid; for viscosity: Capillary tube (Ostwald / Ubbelohde) method; for speed of sound: Sing-around technique in a fixed-path interferometer; for mass density: Vibrating tube method

CCCCn1cc[n+](C)c1.[Br-] [1-butyl-3-methylimidazolium bromide] + CC#N
Details	mass density, [1] [kg/m3]	refractive index, [2]	speed of sound, [1] [m/s]	viscosity, [1] [mPa·s]
288.15 K, m1 = 0.1046	796.218	1.3492	1323.5	0.4
288.15 K, m1 = 0.2021	803.662	1.3528	1327.1	0.421
288.15 K, m1 = 0.2996	810.75	1.3557	1330.3	0.44
298.15 K, m1 = 0.1046	785.312	1.3449	1283.2	0.363
298.15 K, m1 = 0.2021	792.989	1.3479	1287.1	0.38
298.15 K, m1 = 0.2996	800.167	1.3509	1290.3	0.398
308.15 K, m1 = 0.1046	774.491	1.3402	1243.2	0.331
308.15 K, m1 = 0.2021	782.263	1.3429	1247.2	0.346
308.15 K, m1 = 0.2996	789.528	1.3462	1250.6	0.361
318.15 K, m1 = 0.1046	763.59	1.3359	1203.1	0.304
318.15 K, m1 = 0.2021	771.427	1.3381	1207.3	0.318
318.15 K, m1 = 0.2996	778.947	1.3402	1210.8	0.331

CC#N [acetonitrile]
Details	mass density, [4] [kg/m3]	refractive index, [3]	speed of sound, [4] [m/s]	viscosity, [4] [mPa·s]
288.15 K	787.395	1.3461	1319.1	0.388
298.15 K	776.615	1.3412	1278.6	0.344
308.15 K	765.81	1.3371	1238.3	0.313
318.15 K	754.851	1.3327	1198.2	0.289
